# Results: US20120171396A1, “Drug suspension agent and method of manufacture thereof” (Beijing Zhongwei Shennong Chronic Desease Medicine Academe …, priority 2009, published 2012)
# How the values were obtained:
# [1] = system: male Prostatic hyperplasia patients; assay: Clinical curative effects of PHD on male Prostatic hyperplasia; assay type: in vivo, human
# From the text: Case selection: 72 patients, male, wherein 53 cases with the age of 60-69 years old, 16 cases with the age of 70-79 years old, 3 cases with the age of 80-89 years old. The longest course of disease is 11 years, the shortest is 3 months. There are 6 cases with the course of disease smaller than one year, 48 cases with the course of disease in the range of 1-4 years, 14 cases with the course of disease in the range of 5-10 years, 4 cases with the course of disease bigger than 10 years. There are 12 cases with prostate enlargement I-degree, 44 cases with prostate enlargement II-degree, and 16 cases with prostate enlargement III-degree. There are 4 cases integrated with bladder stones, and 6 cases with urinary infection.
# Observation method: based on the ages of patients, course of disease and state of illness, patients are divided into two groups.
# (1) The control group comprises 36 patients, administered with finasteride tablet, one every time, one time every day, oral administration.
# (2) The treatment group comprises 36 patients, administered with PHD, four hours every time, one time every day, hanging.
# Observe patients' symptoms before and after administration which mainly includes frequent urination at night, difficult urinating, urination becoming thinner, drop after urination, micturition pain, and urgent urination. No, light, medium, heavy symptoms are scored 0, 1, 2, 3 respectively. Observe integral changes before and after treatment. Rectal touch and B ultra examination are made to observe the recovery condition of prostate enlargement.
# Based on the ratio of the integral difference of local symptom before administration to that after administration and the condition of prostate recovery, curative effects are evaluated. If healing, the integral ratio is 1, and prostate enlargement is back to normal. […] If effective, the integral ratio is in the range of ⅔ to ⅓, and prostate enlargement is improved. If invalid, the integral ration is smaller than ⅓, and prostate enlargement has no change.
# Kunming mice = assay: Pharmacodynamic test of the cough-relieving effect (ammonia-induced cough); assay type: in vivo; settings: 1 hour after administering, control: codeine phosphate 4 mg/kg by gavage, test: hung
# Method: 60 kunming mice, in half respectively male and female and weighing from 18 g to 20 g, are randomly divided into 5 groups based on the weight, each group comprises 12 rice. […] suspension agent is hung in the test group. Codeine phosphate with a dosage of 4 mg/kg is administered to the control group by gavage.
# For the above two groups, at 1 hour after administering, absorb 0.2 ml ammonia (with a concentration of 25%-28%) by 1 ml injector and inject the ammonia into the tampon with the same weight thereof, and then quickly put the injected tampon together with the white rice into an inverse 500 ml beaker, and then record the number of animal coughing within 3 minutes. The obvious decrease of cough frequency is regarded as the index of the antitussive effect.
# [2] = system: gastric and duodenal ulcer patients; assay: Clinical observation of NHD on gastric and duodenal ulcer patients; assay type: in vivo, human
# Method: 1. Case selection: Selected 80 inpatients are in accordance with gastric and duodenal ulcer diagnostic criteria. The inpatients are randomly divided into two groups. […] 2. Method of treatment: […] The course of treatment is one month. After two months, review by gastroscopy. Omeprazole is used in the control group by oral administration once every day, one piece every time (20 mg), the course of treatment is the same. 3. Observation items: ulcer surface (regarding results tested by gastroscope as standard), partial clinical symptoms (such as abdominal pain and acid reflux) 4. Curative effect evaluation standard: referring to Chinese national diagnostic curative effect standard.
# hyperuricemia mice = assay: Pharmacodynamic test of hyperuricemia; assay type: in vivo
# Method: Kunming male mice, weighing 24±2 g, are randomly divided into several groups, use i, g, once every day for 4 days, wherein the dosages administered to the saline group and the hyperuricemia model blank group are […] every day. IP potassium oxide hydrochloride for every hyperuricemia model blank group at 2 hours before blood sampling, and IP potassium oxide hydrochloride for test model group at 1 hour before the last using. At 2 hours after the last using, sample blood from the venous plexus behind the animal orbit to test the serum uric acid level.
# patients with diabetes = assay: Clinical curative effect of DHD on diabetes (diabetes kidney disease patients); assay type: in vivo, human; set-up: Blood glucose at 2 hours after the meal / Fasting blood glucose (FBG): unit not given here
# From the text: 1. The standard of selecting patients: All patients with diabetes are in accordance with WHO diabetes diagnostic criteria. Select 18 cases of urine protein, renal function and two groups with the matching developing speeds of renal function injury within one year from diabetes kidney disease patients (DN). […] Once patients are selected, other drugs related to sugar, fat metabolism are stopped administering, diet control and proper exercise therapy are continued. Test fasting blood glucose and blood glucose at 2 hours after the meal every week. After stabilizing the blood glucose, experimental treatment is performed, the treatment group uses DHD, once every day, four hours every time. […] 3. Results: By statistic treatment, clinical curative effects between the two groups are tested by Ridit, and observation indexes between the two groups and within every group before and after treatment are tested by t-test. Marked: […] Effective: […]
# [3] = 36 cases per group, PHD versus finasteride tablet
# [4] = of healed cases (14 NHD, 6 Omeprazole), time unit not given
# [5] = treat group 50 cases NHD, control group 30 cases Omeprazole 20 mg oral
# [6] = 12 weeks, DHD versus Gliquidone
smiles,measurement,setting,value
"CC(C)(C)NC(=O)[C@H]1CC[C@H]2[C@@H]3CC[C@H]4NC(=O)C=C[C@]4(C)[C@H]3CC[C@]12C [finasteride tablet, finasteride]",Effective (cases),[1]; [3],6
same,Invalid (cases),[1]; [3],16
same,Marked (cases),[1]; [3],10
same,Total efficient rate,[1]; [3],52.78%
same,total effective cases,[1]; [3],26 cases
same,Healing (cases),"[1]; 36 cases per group, treatment PHD hung four hours daily, control finasteride tablet oral once daily",4
same,Integral values of local symptoms before and after administration,"[1]; in words, control P>0.05, treatment P<0.001",significant differences
COc1ccc2c3c1O[C@H]1[C@@H](O)C=C[C@H]4[C@@H](C2)N(C)CC[C@@]341 [Codeine phosphate],inhibition at 4 mg/kg,"Kunming mice; Mus musculus, po, read-out: Cough inhibition Rate (%)",67.3%
same,Cough Frequency,Kunming mice; number of coughing within 3 minutes,11.2 ± 4.8
COc1ccc2[nH]c([S+]([O-])Cc3ncc(C)c(OC)c3C)nc2c1 (centres unmarked) [Omeprazole],needed time for curing diseases: cases healed at course of treatment 6,[2]; [4],0
same,needed time for curing diseases: cases healed at course of treatment 7,[2]; [4],0
same,needed time for curing diseases: cases healed at course of treatment 8,[2]; [4],2
same,needed time for curing diseases: cases healed at course of treatment 9,[2]; [4],4
same,Healing (cases),"[2]; treat group 50 cases NHD hung 5 hours/day, control group 30 cases Omeprazole 20 mg oral once daily",6
same,Invalid effect (cases),[2]; [5],5
same,Marked effect (cases),[2]; [5],6
same,Total efficient rate (%),[2]; [5],83.3%
same,Turning better (cases),[2]; [5],13
Oc1ncnc2[nH]ncc12 [Allopurinol],Serum uric acid level of mice (mg/100 ml),"hyperuricemia mice; hyperuricemia mice, 2 hours after the last using, 4 days, Allopurinol dosage 10",7.46 ± 0.17 mg/100 ml
same,effect on serum uric acid level of normal mice,"hyperuricemia mice; normal mice, in words",can reduce the serum uric acid level of normal mice
COc1ccc2c(c1)C(=O)N(CCc1ccc(S(=O)(=O)NC(=O)NC3CCCCC3)cc1)C(=O)C2(C)C [Gliquidone],Blood glucose at 2 hours after the meal: Effective (cases),patients with diabetes; [6],6
same,Blood glucose at 2 hours after the meal: Invalid (cases),patients with diabetes; [6],0
same,Blood glucose at 2 hours after the meal: Marked (cases),patients with diabetes; [6],4
same,Blood glucose at 2 hours after the meal: Total efficient rate,patients with diabetes; [6],100.0
same,Fasting blood glucose (FBG): Effective (cases),patients with diabetes; [6],6
same,Fasting blood glucose (FBG): Invalid (cases),patients with diabetes; [6],1
same,Fasting blood glucose (FBG): Total efficient rate,patients with diabetes; [6],90.0
same,Fasting blood glucose (FBG): Marked (cases),"patients with diabetes; 12 weeks, treatment group DHD four hours/day, control group Gliquidone 30 mg increased to 90 mg",3
same,Blood glucose at 2 hours after the meal,patients with diabetes; After treating 2 weeks,17.48
same,Fasting blood glucose (FBG),patients with diabetes; After treating 2 weeks,9.99
same,Blood glucose at 2 hours after the meal,patients with diabetes; After treating 4 weeks,12.77
same,Fasting blood glucose (FBG),patients with diabetes; After treating 4 weeks,9.27
same,Blood glucose at 2 hours after the meal,patients with diabetes; After treating 8 weeks,10.07
same,Fasting blood glucose (FBG),patients with diabetes; After treating 8 weeks,8.43
same,BUN,patients with diabetes; After treating (12 weeks),9.2 ± 0.6 mmol/L
same,Blood glucose at 2 hours after the meal,patients with diabetes; After treating (12 weeks),9.21
same,Fasting blood glucose (FBG),patients with diabetes; After treating (12 weeks),7.62
same,Scr,patients with diabetes; After treating (12 weeks),250.9 ± 49.3 µmol/L
same,Urine protein,patients with diabetes; After treating (12 weeks),6.0 ± 2.7
same,BUN,patients with diabetes; Before treating,9.5 ± 0.7 mmol/L
same,Blood glucose at 2 hours after the meal,patients with diabetes; Before treating,14.79
same,Fasting blood glucose (FBG),patients with diabetes; Before treating,10.72
same,Scr,patients with diabetes; Before treating,251.3 ± 54.6 µmol/L
same,Urine protein,patients with diabetes; Before treating,6.2 ± 2.5
